Several values for one entry are separate records, joined by “and”; a condition that tells them apart may be missing. Equal values may be shown once.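 1) Cells in 96-well plates. 2) Compound, 48 h, 5 concentrations. 3) Linear interpolation between surrounding doses. 4) Unreached endpoint = highest concentration. GI50 is the concentration that inhibits growth by half. Definition used: TGI = concentration required for complete inhibition of growth.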
Legend:
Assay in all cases: NCI-60 cell line screen, 48 h
[1] = tested on: UACC-62 melanoma
[2] = tested on: T-47D breast
[3] = tested on: RXF 393 renal
[4] = tested on: SN12C renal
[5] = tested on: SW-620 colon
[6] = tested on: U251 CNS
[7] = tested on: MDA-MB-231 breast
[8] = tested on: DU-145 prostate
[9] = tested on: SNB-75 CNS
[10] = tested on: RPMI-8226 leukemia

SMILES | GI50 [1] | TGI [1] | GI50 [2] | TGI [2] | GI50 [3] | TGI [3] | GI50 [4] | TGI [4] | GI50 [5] | TGI [5] | GI50 [6] | TGI [6] | GI50 [7] | TGI [7] | GI50 [8] | TGI [8] | GI50 [9] | TGI [9] | GI50 [10] | TGI [10]
COc1cc(/C=C/C(=O)C(C(=O)/C=C/c2ccc(OC(=O)CCNc3nnc(C)s3)c(OC)c2)C(=O)CCNc2nnc(C)s2)ccc1OC(=O)CCNc1nnc(C)s1 | 1730 nM | 3.57 µM | 4.14 µM | > 47.5 µM | 1300 nM | 3.22 µM | 2.49 µM | 10.2 µM | 1640 nM | 3.33 µM | 2480 nM | 7.35 µM | 2.23 µM | 7.4 µM | 2.27 µM | 5.61 µM | 6.19 µM | 34.5 µM | 1850 nM | 4.86 µM
Cc1ccc(NSc2ccccc2[N+](=O)[O-])cc1 | 157 nM | 17 µM | 0.444 µM | 40.4 µM | 868 nM | 5.27 µM | 1.3 µM | 21.1 µM | 137 nM | 16.2 µM | 768 nM | 16.3 µM | 1.06 µM | 15.5 µM | 0.984 µM | 15.3 µM | 0.557 µM | 9.32 µM | 925 nM | 52.3 µM
O[C@@H]1CCCN1Cc1cc2cc3c(cc2c2cc(OCc4ccccc4)ccc12)OCO3 | 1970 nM | 3.68 µM | 2.93 µM | 11.7 µM | 1530 nM | 3.85 µM | 3.6 µM | 20.3 µM | 2210 nM | 5.75 µM | 3580 nM | 14.8 µM | 2.18 µM | 5.59 µM | 5.24 µM | 21.8 µM | 5.92 µM | 19.7 µM | 1770 nM | 4.63 µM
COc1cc(Nc2ncc3c(C)nc(-c4cccc(Oc5ccccc5)c4)n3n2)cc(OC)c1OC | 3300 nM | > 13.8 µM | 4.51 µM | 17.2 µM | 2280 nM | > 25 µM | 5.32 µM | > 21.6 µM | 9610 nM | > 25 µM | 6510 nM | > 25 µM | 4.99 µM | > 24.2 µM | 3.05 µM | > 25 µM | 5.14 µM | > 25 µM | 6080 nM | > 25 µM
CO/N=C(\COc1ccc2c(c1)oc(=O)c1cc(OC)ccc12)c1ccc(F)cc1 | 21500 nM | 73.9 µM | 25 µM | 90.3 µM | 35100 nM | > 100 µM | 27.2 µM | > 100 µM | 34800 nM | > 100 µM | 20300 nM | 40.4 µM | 15.8 µM | 42.8 µM | 22.8 µM | 62.2 µM | 13.4 µM | 27.1 µM | 32800 nM | > 100 µM
CC1(C)N=C(N)N=C(N)N1c1ccc(OCC(=O)N2CCOCC2)c(Cl)c1 | 4740 nM | > 100 µM | > 100 µM | > 100 µM | 52800 nM | > 100 µM | 6.9 µM | > 100 µM | 714 nM | > 100 µM | 1160 nM | > 100 µM | > 100 µM | > 100 µM | 0.994 µM | > 100 µM | 10.3 µM | > 100 µM | 9040 nM | > 100 µM
CNc1cccnc1/C=N/NC(N)=S |  | 3.07 µM |  | > 10 µM |  | > 10 µM |  | > 8.25 µM |  | > 10 µM |  | > 10 µM |  | > 10 µM |  | 3.89 µM |  | > 7.14 µM |  | > 10 µM
COc1cc(C2CC(c3ccc(Nc4ccnc5cc(Cl)ccc45)cc3)=NN2C=O)cc(OC)c1OC (centres undefined) | 2200 nM | 6.87 µM | 2.33 µM | 7.4 µM | 2220 nM | 8.01 µM | 4.37 µM | 42.4 µM | 3490 nM | 17.7 µM | 2060 nM | 4.76 µM | 4.39 µM | 54 µM | 6.63 µM | > 100 µM | 5.19 µM | 32.5 µM | 2560 nM | 8.63 µM
CC(C)(C)c1cn2cccc(C(=O)N3CCN(CC(=O)Nc4ccc(Cl)cc4C(=O)c4ccccc4Cl)CC3)c2n1 | 10700 nM | 26 µM | 5.33 µM | > 100 µM | 1710 nM | 6.34 µM | 10.6 µM | 35.4 µM | 7810 nM | 29.1 µM | 7680 nM | 25.5 µM | 13.1 µM | 34.5 µM | 11.7 µM | 27.5 µM | 12.8 µM | 90.2 µM | 2670 nM | 7.26 µM
CC(C)=CC(O)C/C(C)=C/CC/C(C)=C/CCC1(C)C(CCCO)/C(=C(/C)C=O)CCC1(C)O (centres undefined) |  | > 100 µM |  | > 100 µM |  | 90.6 µM |  | 76.2 µM |  | > 100 µM |  | > 100 µM |  | 74.1 µM |  | > 100 µM |  | > 100 µM |  | 47.2 µM
O=C(Nc1cccnc1)c1cccc([N+](=O)[O-])c1 | > 100000 nM | > 100 µM | > 100 µM | > 100 µM | > 100000 nM | > 100 µM | > 100 µM | > 100 µM | > 100000 nM | > 100 µM | > 100000 nM | > 100 µM | > 100 µM | > 100 µM | > 100 µM | > 100 µM | > 100 µM | > 100 µM | > 100000 nM | > 100 µM
CC1CC(C)/C(=N/NC(N)=O)C(C(O)CC2CCC(=O)NC2=O)C1 (centres undefined) | 2790 nM | > 100 µM | 4.41 µM | > 100 µM | 3210 nM | 31.7 µM | 1.99 µM | > 100 µM | 2900 nM | > 100 µM | 1960 nM | 91.1 µM | 8.4 µM | 88.9 µM | 3.78 µM | 52.6 µM | 4.26 µM | > 100 µM | 6770 nM | 94.1 µM
c1ccc2c(-c3nc4ccccc4[nH]3)cccc2c1 | 1990 nM | 27.3 µM | 6.06 µM | > 100 µM | 2580 nM | 12 µM | 5.03 µM | > 100 µM | 1910 nM | 53.8 µM | 3720 nM | 26.3 µM | 9.65 µM | > 100 µM | 3.04 µM | 9.29 µM | 2.35 µM | 13.5 µM | 3190 nM | 34.5 µM
Oc1ccc2ccccc2c1C(c1ccc(Cl)cc1)c1c(O)ccc2ccccc12 |  | 15.1 µM |  | 12.3 µM |  | 8.28 µM |  | 9.72 µM |  | 18.4 µM |  | 12.9 µM |  | 9.24 µM |  | 12.4 µM |  | 10.8 µM |  | 5.21 µM
Cc1ccc(/C=C/C(=O)c2ccc(N)cc2)c(C)c1 | 2520 nM | 7.16 µM | 2.05 µM | 4.64 µM | 5560 nM | 17.9 µM | 1.95 µM | 4.2 µM | 1920 nM | 3.88 µM | 6500 nM | 19.3 µM | 2.68 µM | 6.75 µM | 10.8 µM | 22.7 µM | 2.01 µM | 7.45 µM | 2120 nM | 4.99 µM
O=c1oc2ccc(F)cc2c(=O)n1-c1ccc(Cl)cc1F | 330 nM | 1.56 µM | 0.661 µM | 5.46 µM | 974 nM | 4.48 µM | 0.495 µM | 6.92 µM | 1240 nM | 21.2 µM | 868 nM | > 59.8 µM | 0.675 µM | 6.33 µM | 1.1 µM | 22 µM | 0.375 µM | 2.65 µM | 356 nM | 1.9 µM
C/C1=C\CC[C@@]2(C)O[C@@H]2C[C@@H]2[C@H](C/C(C)=C/CC1)OC(=O)C21CCN=N1 (some centres undefined) | > 100000 nM | > 100 µM |  | > 100 µM | > 100000 nM | > 100 µM | > 100 µM | 75 µM and > 100 µM | > 100000 nM | > 100 µM | > 100000 nM | > 100 µM | > 100 µM | > 100 µM | > 100 µM | > 100 µM | > 100 µM | 75 µM and > 100 µM | > 100000 nM | 75 µM and > 100 µM
COc1cc(C(=O)N2CCN(c3ccccc3OC)CC2)c(N)cc1OCc1ccccc1 | 26000 nM | 77.1 µM | 26.2 µM | 99.5 µM | 25300 nM | 85.9 µM | 30.5 µM | > 100 µM | 41100 nM | > 100 µM | 41800 nM | > 100 µM | 19.2 µM | 42.6 µM | 42 µM | > 100 µM | 42.6 µM | > 100 µM | 21100 nM | 49.2 µM
COc1ccc(Cn2cc3c(c2-c2ccc(O)cc2)CCc2cnoc2-3)cc1 | 540 nM | 17.6 µM | 0.377 µM | 23.7 µM | 309 nM | 3.67 µM | 1.16 µM | 23.2 µM | 295 nM | 15.9 µM | 447 nM | 15.1 µM | 0.699 µM | 13.3 µM | 0.365 µM | 5.14 µM | 0.221 µM | 0.676 µM | 365 nM | 6.36 µM
C=C(C)[C@@H]1CC[C@]2(C(=O)O)CC[C@]3(C)[C@H](CC[C@@H]4[C@@]5(C)C[C@@H](CC#Cc6ccc(Br)cc6)C(=O)C(C)(C)[C@@H]5CC[C@]43C)[C@@H]12 | 2690 nM | 8.34 µM | 9.02 µM | > 100 µM | 5500 nM | 21.8 µM | 2.99 µM | 9.25 µM | 3730 nM | > 100 µM | 2120 nM | 6.72 µM | 3.67 µM | 14.8 µM | 7.59 µM | > 100 µM | 13.5 µM | 34.6 µM | 9080 nM | > 100 µM
CC(=O)Nc1ccc2c(c1)C(=O)c1cccc(F)c1-2 |  | > 100 µM |  | > 100 µM |  | > 91.2 µM |  | > 100 µM |  | > 100 µM |  | > 100 µM |  | > 100 µM |  | > 100 µM |  | > 100 µM |  | > 100 µM
O=C(N/N=c1/ccoc2cccnc12)N1CCN(c2ncccn2)CC1 | 457 nM | 5.12 µM | < 0.01 µM | 7.85 µM | 1090 nM | 4.03 µM | 1.57 µM | 14.8 µM | < 13.1 nM | 10.6 µM | 77.7 nM | 9.15 µM | 0.278 µM | 7.41 µM | 0.796 µM | 13.1 µM | 1.63 µM | 9.33 µM | < 10 nM | 2.04 µM
Cn1c(=O)c2[nH]c(C3CC(=O)CC(c4nc5c([nH]4)c(=O)n(C)c(=O)n5C)N3)nc2n(C)c1=O (centres undefined) |  | > 100 µM |  | > 100 µM |  | > 100 µM |  | > 100 µM |  | > 100 µM |  | > 100 µM |  | > 100 µM |  | > 100 µM |  | > 100 µM |  | > 100 µM
N#Cc1c(-c2ccc(Cl)cc2)c(-c2ccc(Cl)cc2)nn(CCOC(=O)CCC(=O)O)c1=O |  | 47.7 µM |  | > 100 µM |  | 11.9 µM |  | > 60 µM |  | > 100 µM |  | 40.3 µM |  | 28.6 µM |  | 6.86 µM |  | > 75.7 µM |  | > 60 µM
Cc1nc(N)sc1N=Nc1cc(Cl)c([N+](=O)[O-])cc1Cl |  | 36.1 µM |  | > 100 µM |  | > 100 µM |  | 56.1 µM |  | 35.8 µM |  | 44.7 µM |  | 45.9 µM |  | 32.5 µM |  | 30.5 µM |  | 21.8 µM
